Entries after “also recorded” stand apart in the source; their conditions may differ.
Tests used:
Format in all cases: cell-based
[1] = test system: nucleus (DAPI nuclear marker); assay: Confocal fluorescence microscopy, subcellular localization; settings: 24 hours incubation at 37° C.
Protocol: Subcellular localization was determined using confocal fluorescence microscopy. 150000 cells were seeded on previously sterilized glass coverslips in 35 mm dishes 24 hours before incubation with the drug. […] The cells were then fixed with 3% paraformaldehyde for 20 minutes at room temperature. DAPI (4′,6-diamidino-2-phenylindole) (600 nM) was incubated with the cells and used as a nuclear marker. The cells were mounted with SlowFade Light Antifade medium (Molecular Probes, Eugene, Oreg.) and sealed as described previously. The cells were then imaged on a Zeiss (Thornwood, N.Y.) LSM 510 confocal imaging system with an Axioplan 2 microscope (100× plan-apo objective, NA=1.4, oil) and a titanium sapphire multiphoton laser (mesochlorin, excitation 800 nm, emission 650 nm low pass filter; DAPI, excitation 800 nm, emission 461 nm band pass filter). The settings for all the confocal systems were adjusted so that control cells yielded dark images.
In these images, DAPI is represented by […] fluorescence. […] Mce6 is stained red in color. […] These two windows separately indicate the subcellular localization of Mce6 and DAPI respectively. These 2 windows are superimposed in window D to display a composite image.

[2] = test system: murine adenocarcinoma (1471.1) cells; assay: Cytotoxicity after illumination, WST-8 assay; settings: incubated 4 hours, DMEM with 10% charcoal stripped FBS, illuminated 30 min, Mce6 equivalents, read-out: IC50 (μM) (Mean ± SD)
Protocol: The IC50 (concentration that inhibits growth by 50%) was determined utilizing a WST-8 assay. Four thousand cells were seeded into 96 well plates and incubated overnight in a humidified atmosphere containing 5% CO2. […] The incubation period was 10 hours in the case of the HPMA copolymer-bound Mce6 conjugates. After the period of incubation, the media containing the drug was removed and 100 μL of fresh media was added and the cells were promptly illuminated for 30 min. The light source was three ENH Tungsten halogen lamps (120 V/250 W) placed in parallel, attenuated by three band-pass interference filters (Melles Griot Co., Carlsbad, Calif.). The light energy was approximately 2 mW cm^−2 as determined using a radiometer.
After illumination, the cells were incubated in a humidified atmosphere containing 5% CO2 for 24 hours. The media was replaced with 100 μL fresh media containing 10 μL of WST-8. After two hours incubation, the absorbance was read at 450 nm with background correction at 630 nm. Untreated cells served as 100% viable cells, whereas media served as background. Percentage of viable cells was calculated by dividing the mean absorbance of each well by the absorbance of the untreated cells. Linear regression was performed utilizing the linear portion of the growth inhibition curve to determine the IC50 dose.

[3] = biological target: T1, green fluorescent protein tagged-GR (GFP-GR) (Rattus norvegicus, UniProt P06536, C656G); assay: GFP-GR system, biorecognition (nuclear translocation of GFP tagged GR); settings: fluorescence microscopy, 37° C., Mce6 at 20 μM and 30 μM, images up to 30 minutes
T1 construct: expressed in transfected cells
T1 sequence (P06536 1-795 C656G): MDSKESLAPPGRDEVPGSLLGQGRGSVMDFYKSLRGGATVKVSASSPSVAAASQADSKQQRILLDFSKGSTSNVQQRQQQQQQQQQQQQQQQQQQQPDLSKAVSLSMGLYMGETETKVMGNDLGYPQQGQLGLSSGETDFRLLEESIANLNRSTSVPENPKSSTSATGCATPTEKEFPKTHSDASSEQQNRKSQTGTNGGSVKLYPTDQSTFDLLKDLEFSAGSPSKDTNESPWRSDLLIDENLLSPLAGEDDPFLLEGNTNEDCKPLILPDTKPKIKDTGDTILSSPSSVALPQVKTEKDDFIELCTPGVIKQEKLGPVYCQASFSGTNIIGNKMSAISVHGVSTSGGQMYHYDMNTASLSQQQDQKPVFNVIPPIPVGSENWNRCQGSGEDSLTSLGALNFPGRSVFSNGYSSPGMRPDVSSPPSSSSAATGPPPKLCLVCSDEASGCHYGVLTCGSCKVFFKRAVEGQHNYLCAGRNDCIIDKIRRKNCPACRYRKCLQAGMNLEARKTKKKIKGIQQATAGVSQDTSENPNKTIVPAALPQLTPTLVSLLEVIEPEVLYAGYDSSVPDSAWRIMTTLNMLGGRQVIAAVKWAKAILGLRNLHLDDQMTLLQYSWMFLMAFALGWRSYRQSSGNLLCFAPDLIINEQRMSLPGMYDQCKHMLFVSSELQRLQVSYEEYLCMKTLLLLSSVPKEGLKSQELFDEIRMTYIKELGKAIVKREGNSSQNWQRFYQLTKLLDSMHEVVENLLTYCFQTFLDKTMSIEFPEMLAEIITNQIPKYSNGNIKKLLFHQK
Protocol: This system involves the generation of GFP labeled GR in the cell. The cells are then treated with the drug and the change in the localization of the fluorescently tagged GR is followed. Cells were transfected with GFP-GR plasmids as previously. Briefly, 5×10^6 cells were transfected with 2 μg of the GFP-GR plasmid plus carrier DNA using an Electrosquare porator ECM 830 system (BTX, San Diego, Calif.). The electroporation was performed using 3 pulses each of 135 V for 10 milliseconds, […]. Cells were allowed to recover on ice for 5 minutes and were then diluted with phenol red-free DMEM with 10% charcoal stripped FBS and plated on a clear cover glass (Corning no. 1, 22 mm^2) into live cell chambers (Lab-Tek II chambered cover glass with cover). These cells were incubated in cell culture conditions for 24 hrs. […] The import of GFP-receptor-conjugate complexes was monitored using an Olympus IX701F inverted fluorescence microscope and an EGFP filter set (Chroma Technology Corp.) (exciter 480 nm, emitter 510 nm, beam splitter 495 nm). Cells were maintained at 37° C. using a Nevtek ASI 400 Air Stream Incubator (variable temperature control) attached to a temperature probe as previously. Cells were photographed using an F-View Monochrome CCD camera.

GR = assay: MMTV luciferase assay; settings: data not shown
[4] = listed as Cort-Lys-Mce6 derivative

Row | Substance | subcellular localization of Mce6 fluorescence [1] | subcellular localization of Mce6 fluorescence [1, 4] | IC50 [2] | redistribution of GFP tagged GR from the cytoplasm to the nucleus [3] | redistribution of GFP tagged GR from the cytoplasm to the nucleus [3, 4] | ability to bind the GR and induce nuclear translocation (GR) | subcellular localization of Mce6 fluorescence ([1]; disodium salt) | redistribution of GFP tagged GR from the cytoplasm to the nucleus ([3]; disodium salt)
1 | alpha-N-(Cortisol-C17-carbamoyl)-Lysyl-Mesochlorin ethyl amide [Cort-Lys-Mce6] | located in the cytoplasm and in the nucleus | colocalization of Mce6 and DAPI | 1.96 ± 0.17 µM | increase in the fluorescence level in the nucleus | able to shuttle GFP tagged GR from the cytoplasm to the nucleus | independently verified | – | –
2 | Mesochlorin e6 monoethylene diamine disodium salt [Mce6, reference compound] | – | – | 5.3 ± 0.93 µM | – | – | – | faint Mce6 fluorescence in the nucleus; also recorded: predominantly located in the cytoplasm | cannot cause redistribution of the GFP tagged GR; also recorded: did not induce any change in the localization of the receptors

Source: patent publication US20070287680A1, “Combined Active and Passive Targeting of Biologically Active Agents” (University of Utah Research Foundation, priority 2004, published 2007)
